Common to all, as to assay type: biochemical
Assay [1] concerns the target EGFR (Homo sapiens, UniProt P00533). Description: Inhibition of a panel of kinases, in vitro HotSpot kinase assay: EGFR. The note with it: D-compounds panel data; 1 μM ATP. The procedure:
(§1) The degree of inhibition of a panel of kinases is determined using the in vitro HotSpot kinase assay (purified enzymes, ^33P-ATP, an appropriate substrate and 1 μM ATP).

The target in assay [2] is T1, BTK-WT (Homo sapiens, UniProt Q06187).
T1 construct: purified from insect cells as a full-length construct containing an N-terminal 6X-His tag; His6 (N); made in house; host or cells: insect cells (baculovirus Sf21 in Method B)
In words: Btk in vitro inhibitory activity (one of Method A TR-FRET, Method B electrophoretic mobility shift, Method C radiometric filter binding). The note with it: D-compounds panel data; read-out: IC50 BTK-WT. (In EMSA bound probe runs differently from free probe, usually more slowly.)

In assay [3] the target is SRC (Homo sapiens, UniProt P12931). Description: Inhibition of a panel of kinases, in vitro HotSpot kinase assay: SRC. The following applies: D-compounds panel data; 1 μM ATP. The procedure:
as §1

Assay [4] has as its target T2, JAK3 (Homo sapiens, UniProt P52333).
T2 sequence (P52333 1-1124): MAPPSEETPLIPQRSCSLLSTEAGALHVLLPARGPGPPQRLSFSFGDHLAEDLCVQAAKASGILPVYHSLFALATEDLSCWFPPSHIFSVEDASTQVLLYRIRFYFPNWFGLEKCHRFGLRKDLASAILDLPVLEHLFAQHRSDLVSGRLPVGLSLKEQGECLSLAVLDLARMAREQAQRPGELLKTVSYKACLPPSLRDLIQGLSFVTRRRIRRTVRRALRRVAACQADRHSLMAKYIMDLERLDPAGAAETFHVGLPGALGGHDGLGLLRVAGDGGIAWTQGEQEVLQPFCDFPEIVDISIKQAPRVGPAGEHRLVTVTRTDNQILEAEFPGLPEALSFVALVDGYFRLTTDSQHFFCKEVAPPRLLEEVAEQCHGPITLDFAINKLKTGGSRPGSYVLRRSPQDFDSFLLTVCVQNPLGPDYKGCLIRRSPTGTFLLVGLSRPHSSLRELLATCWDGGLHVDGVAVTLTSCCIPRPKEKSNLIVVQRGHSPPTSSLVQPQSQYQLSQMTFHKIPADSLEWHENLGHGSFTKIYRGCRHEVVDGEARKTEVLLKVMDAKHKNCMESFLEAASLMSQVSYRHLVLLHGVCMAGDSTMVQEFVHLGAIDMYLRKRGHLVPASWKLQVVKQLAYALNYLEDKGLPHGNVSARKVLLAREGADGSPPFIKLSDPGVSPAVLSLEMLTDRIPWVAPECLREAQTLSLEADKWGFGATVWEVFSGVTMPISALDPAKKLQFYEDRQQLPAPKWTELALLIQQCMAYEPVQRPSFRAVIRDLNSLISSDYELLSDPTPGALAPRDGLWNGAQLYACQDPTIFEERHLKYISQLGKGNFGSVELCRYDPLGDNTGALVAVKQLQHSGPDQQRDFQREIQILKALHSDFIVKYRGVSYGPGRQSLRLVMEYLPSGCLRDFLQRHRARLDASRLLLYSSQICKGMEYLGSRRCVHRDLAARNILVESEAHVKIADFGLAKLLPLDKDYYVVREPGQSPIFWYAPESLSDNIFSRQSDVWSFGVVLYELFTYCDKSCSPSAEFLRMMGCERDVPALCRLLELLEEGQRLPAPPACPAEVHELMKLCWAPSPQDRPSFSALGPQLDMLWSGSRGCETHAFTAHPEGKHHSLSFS
In words: Inhibition of a panel of kinases, in vitro HotSpot kinase assay: JAK3. The following applies: D-compounds panel data; 1 μM ATP; read-out: IC50 JAK3.

Molecules are shown by their SMILES. Bounds are passed on as bounds.

Usually IC50 stands for the concentration that gives 50% inhibition.

EGFR, sequence (P00533 25-1210): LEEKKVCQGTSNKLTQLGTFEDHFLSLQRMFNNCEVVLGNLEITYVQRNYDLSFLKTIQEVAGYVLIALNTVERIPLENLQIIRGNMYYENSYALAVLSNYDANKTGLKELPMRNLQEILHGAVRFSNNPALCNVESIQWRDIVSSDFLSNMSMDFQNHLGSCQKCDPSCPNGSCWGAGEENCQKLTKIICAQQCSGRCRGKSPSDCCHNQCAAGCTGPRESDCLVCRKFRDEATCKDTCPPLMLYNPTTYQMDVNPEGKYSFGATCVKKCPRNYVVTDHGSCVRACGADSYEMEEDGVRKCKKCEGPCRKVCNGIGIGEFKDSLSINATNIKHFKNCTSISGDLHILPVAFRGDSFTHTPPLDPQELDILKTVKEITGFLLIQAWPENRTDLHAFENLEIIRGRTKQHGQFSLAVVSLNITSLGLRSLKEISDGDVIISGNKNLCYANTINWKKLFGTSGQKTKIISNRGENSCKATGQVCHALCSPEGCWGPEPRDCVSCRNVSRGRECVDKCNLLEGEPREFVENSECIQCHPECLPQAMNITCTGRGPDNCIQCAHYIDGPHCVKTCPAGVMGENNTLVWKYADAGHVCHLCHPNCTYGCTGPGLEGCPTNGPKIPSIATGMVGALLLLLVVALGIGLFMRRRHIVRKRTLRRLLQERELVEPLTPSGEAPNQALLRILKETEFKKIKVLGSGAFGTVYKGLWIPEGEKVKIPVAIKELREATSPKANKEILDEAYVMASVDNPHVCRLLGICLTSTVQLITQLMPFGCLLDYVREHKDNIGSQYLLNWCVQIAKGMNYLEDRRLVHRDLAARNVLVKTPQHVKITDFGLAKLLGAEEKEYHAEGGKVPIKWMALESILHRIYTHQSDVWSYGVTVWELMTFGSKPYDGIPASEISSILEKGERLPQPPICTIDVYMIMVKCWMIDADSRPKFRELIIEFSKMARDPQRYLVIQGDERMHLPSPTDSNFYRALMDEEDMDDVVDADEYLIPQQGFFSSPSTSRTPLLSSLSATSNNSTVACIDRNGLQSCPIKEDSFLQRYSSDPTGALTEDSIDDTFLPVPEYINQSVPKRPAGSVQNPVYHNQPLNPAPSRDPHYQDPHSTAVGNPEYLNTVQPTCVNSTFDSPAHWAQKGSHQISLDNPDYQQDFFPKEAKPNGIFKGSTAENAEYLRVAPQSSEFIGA
SRC, sequence (P12931 whole entry): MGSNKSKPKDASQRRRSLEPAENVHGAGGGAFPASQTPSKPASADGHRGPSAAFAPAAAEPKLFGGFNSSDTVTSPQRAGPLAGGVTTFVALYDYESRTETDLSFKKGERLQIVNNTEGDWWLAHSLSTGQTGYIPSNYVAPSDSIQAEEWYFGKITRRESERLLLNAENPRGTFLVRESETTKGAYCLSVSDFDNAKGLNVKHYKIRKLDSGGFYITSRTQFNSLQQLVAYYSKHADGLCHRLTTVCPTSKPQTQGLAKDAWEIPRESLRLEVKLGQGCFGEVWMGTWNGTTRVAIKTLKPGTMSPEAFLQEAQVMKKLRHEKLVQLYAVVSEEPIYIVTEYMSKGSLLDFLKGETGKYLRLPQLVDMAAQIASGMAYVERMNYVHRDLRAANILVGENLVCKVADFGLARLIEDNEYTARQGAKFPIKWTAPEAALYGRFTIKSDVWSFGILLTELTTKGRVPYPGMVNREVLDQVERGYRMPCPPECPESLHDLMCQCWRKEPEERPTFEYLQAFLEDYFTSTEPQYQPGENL
T1 sequence (Q06187 whole entry): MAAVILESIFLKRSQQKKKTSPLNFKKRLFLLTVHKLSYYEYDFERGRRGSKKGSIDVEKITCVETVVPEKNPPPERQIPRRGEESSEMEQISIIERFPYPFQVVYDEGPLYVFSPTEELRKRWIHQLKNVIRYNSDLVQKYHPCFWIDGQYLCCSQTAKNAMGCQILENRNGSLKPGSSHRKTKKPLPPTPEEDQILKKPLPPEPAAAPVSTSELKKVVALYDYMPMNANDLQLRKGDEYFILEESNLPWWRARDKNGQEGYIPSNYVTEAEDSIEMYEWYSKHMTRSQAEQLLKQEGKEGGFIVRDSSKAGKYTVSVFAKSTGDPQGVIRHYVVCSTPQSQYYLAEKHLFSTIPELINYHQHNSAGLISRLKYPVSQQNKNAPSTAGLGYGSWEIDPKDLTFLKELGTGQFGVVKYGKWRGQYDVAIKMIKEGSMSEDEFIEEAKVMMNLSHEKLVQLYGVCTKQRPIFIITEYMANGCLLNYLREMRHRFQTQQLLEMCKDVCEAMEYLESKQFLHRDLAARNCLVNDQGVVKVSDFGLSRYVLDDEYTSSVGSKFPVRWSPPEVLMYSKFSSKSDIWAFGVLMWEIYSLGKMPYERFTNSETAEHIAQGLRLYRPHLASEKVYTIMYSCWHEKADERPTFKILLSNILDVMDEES

Regarding `C[C@H]1CC[C@@H](NC(=O)c2ccc(C3CC3)cc2)CN1c1cnc(C(N)=O)c(Nc2ccc(N3CCN(C)CC3)c(F)c2)n1` [Example D-150, 5-[(2S,5R)-5-(4-cyclopropylbenzamido)-2-methylpiperidin-1-yl]-3-{[3-fluoro-4-(4-methylpiperazin-1-yl)phenyl]amino}pyrazine-2-carboxamide], the IC50 in assay [1] is 100 to 1000 nM; in assay [2] it was not above 10 nM; in assay [3], 10 to 100 nM; in assay [4], 1000 to 10000 nM.

`CNC(=O)N[C@@H]1CCCN(c2cnc(C(N)=O)c(Nc3cnn(C)c3)n2)[C@@H]1C` [Example D-109, 3-[(1-methyl-1H-pyrazol-4-yl)amino]-5-[(2R,3R)-2-methyl-3-[(methylcarbamoyl)amino]piperidin-1-yl]pyrazine-2-carboxamide]: the IC50 in assay [1] is 1000 to 10000 nM; in assay [2] it was not above 10 nM; in assay [3], 100 to 1000 nM; in assay [4], 1000 to 10000 nM.

For the compound `COC(C)(C)c1ccc(C(=O)N[C@@H]2CCCN(c3cnc(C(N)=O)c(Nc4cnn(C)c4)n3)[C@@H]2C)cc1` [Example D-161, 5-[(2R,3R)-3-[4-(2-methoxypropan-2-yl)benzamido]-2-methylpiperidin-1-yl]-3-[(1-methyl-1H-pyrazol-4-yl)amino]pyrazine-2-carboxamide], the IC50 in assay [1] is 1000 to 10000 nM; in assay [2], not above 10 nM; in assay [3], 10 to 100 nM; in assay [4], 1000 to 10000 nM.

Consider `Cc1cc(Nc2nc(N3CCC[C@@H](NC(=O)c4ccc(C(C)(C)O)cc4)[C@H]3C)cnc2C(N)=O)sn1` [Example D-159, 5-[(2R,3R)-3-[4-(2-hydroxypropan-2-yl)benzamido]-2-methylpiperidin-1-yl]-3-[(3-methyl-1,2-thiazol-5-yl)amino]pyrazine-2-carboxamide], for which the IC50 was 100 to 1000 nM in assay [1], not above 10 nM in assay [2], 10 to 100 nM in assay [3] and 100 to 1000 nM in assay [4].

As for `C[C@@H]1[C@H](NC(=O)c2ccc(OC(F)(F)F)cc2)CCCN1c1cnc(C(N)=O)c(Nc2cnn(C)c2)n1` [Example D-95, 3-[(1-methyl-1H-pyrazol-4-yl)amino]-5-[(2R,3R)-2-methyl-3-[4-(trifluoromethoxy)benzamido]piperidin-1-yl]pyrazine-2-carboxamide], the IC50 in assay [1] is 100 to 1000 nM; in assay [2] it was not above 10 nM; in assay [3] it was 100 to 1000 nM; in assay [4], 1000 to 10000 nM.

For `C[C@@H]1[C@H](NC(=O)c2ccc(C3CC3)cc2F)CCCN1c1cnc(C(N)=O)c(Nc2ccc(N3CCN(C)CC3)cc2)c1` [Example D-126, 5-[(2R,3R)-3-(4-cyclopropyl-2-fluorobenzamido)-2-methylpiperidin-1-yl]-3-{[4-(4-methylpiperazin-1-yl)phenyl]amino}pyridine-2-carboxamide], the IC50 in assay [1] was more than 10000 nM; in assay [2], 10 to 100 nM; in assay [3] it was 100 to 1000 nM; in assay [4], more than 10000 nM.

For `CC(C)n1cc(Nc2nc(N3CCC[C@@H](NC(=O)c4ccc(C5CC5)cc4F)[C@H]3C)cnc2C(N)=O)cn1` [Example D-123, 5-[(2R,3R)-3-(4-cyclopropyl-2-fluorobenzamido)-2-methylpiperidin-1-yl]-3-{[1-(propan-2-yl)-1H-pyrazol-4-yl]amino}pyrazine-2-carboxamide], the IC50 in assay [1] is 1000 to 10000 nM; in assay [2], not above 10 nM; in assay [3] it was 100 to 1000 nM; in assay [4] it was more than 10000 nM.

Consider `Cc1cc(Nc2nc(N3CCCC(c4ncc(-c5ccccc5)[nH]4)C3)cnc2C(N)=O)sn1` [Example D-164, 3-[(3-methyl-1,2-thiazol-5-yl)amino]-5-[3-(4-phenyl-3H-imidazol-2-yl)piperidin-1-yl]pyrazine-2-carboxamide], for which the IC50 was 100 to 1000 nM in assay [1], 10 to 100 nM in assay [2], 100 to 1000 nM in assay [3] and 100 to 1000 nM in assay [4].

For the compound `C[C@@H]1[C@H](NC(=O)c2ccc(C3CC3)cc2F)CCCN1c1cnc(C(N)=O)c(Nc2ccn(C)n2)n1` [Example D-129, 5-[(2R,3R)-3-(4-cyclopropyl-2-fluorobenzamido)-2-methylpiperidin-1-yl]-3-[(1-methyl-1H-pyrazol-3-yl)amino]pyrazine-2-carboxamide], the IC50 in assay [1] is 1000 to 10000 nM; in assay [2] it was 100 to 1000 nM; in assay [3], more than 10000 nM; in assay [4], more than 10000 nM.

On to `C[C@@H]1[C@H](NC(=O)N(C)C)CCCN1c1cnc(C(N)=O)c(Nc2ccc(N3CCN(C)CC3)cc2)c1` [Example D-127, 5-[(2R,3R)-3-[(dimethylcarbamoyl)amino]-2-methylpiperidin-1-yl]-3-{[4-(4-methylpiperazin-1-yl)phenyl]amino}pyridine-2-carboxamide], for which the IC50 in assay [1] is more than 10000 nM; in assay [2] it was 100 to 1000 nM; in assay [3] it was 1000 to 10000 nM; in assay [4] it was more than 10000 nM.

`C[C@@H]1[C@H](NC(=O)c2ccc(C3CC3)cc2)CCCN1c1cnc(C(N)=O)c(Nc2ccc(OC3CCCN(C)C3)cc2)n1` (stereo partly drawn) [Example D-105, 5-[(2R,3R)-3-(4-cyclopropylbenzamido)-2-methylpiperidin-1-yl]-3-({4-[(1-methylpiperidin-3-yl)oxy]phenyl}amino)pyrazine-2-carboxamide]: the IC50 in assay [1] was 100 to 1000 nM; in assay [2], not above 10 nM; in assay [3] it was 10 to 100 nM; in assay [4] it was 100 to 1000 nM.

On to `C[C@@H]1[C@H](NC(=O)c2ccc(C3CC3)cc2F)CCCN1c1cnc(C(N)=O)c(Nc2ccc(C3(C)CCN(C4CCC4)CC3)cc2)n1` [Example D-134, 3-{[4-(1-cyclobutyl-4-methylpiperidin-4-yl)phenyl]amino}-5-[(2R,3R)-3-(4-cyclopropyl-2-fluorobenzamido)-2-methylpiperidin-1-yl]pyrazine-2-carboxamide], for which the IC50 was 100 to 1000 nM in assay [1], not above 10 nM in assay [2], 10 to 100 nM in assay [3] and 100 to 1000 nM in assay [4].

In the case of `C[C@@H]1CC[C@H](NC(=O)c2ccc(C3CC3)cc2)CN1c1cnc(C(N)=O)c(Nc2ccc(N3CCN(C)CC3)cc2)n1` [Example D-153, 5-[(2R,5S)-5-(4-cyclopropylbenzamido)-2-methylpiperidin-1-yl]-3-{[4-(4-methylpiperazin-1-yl)phenyl]amino}pyrazine-2-carboxamide], the IC50 in assay [1] was 100 to 1000 nM; in assay [2] it was not above 10 nM; in assay [3], 10 to 100 nM; in assay [4], 100 to 1000 nM.

As to `C[C@@H]1[C@H](NC(=O)c2ccc(C3CC3)cc2F)CCCN1c1cnc(C(N)=O)c(Nc2ccc(N3CCN(C4CCCC4)CC3)cc2)n1` [Example D-5, 3-{[4-(4-cyclopentylpiperazin-1-yl)phenyl]amino}-5-[(2R,3R)-3-(4-cyclopropyl-2-fluorobenzamido)-2-methylpiperidin-1-yl]pyrazine-2-carboxamide], the IC50 is 100 to 1000 nM in assay [1], not above 10 nM in assay [2], 10 to 100 nM in assay [3] and 100 to 1000 nM in assay [4].

Turning to `C[C@@H]1[C@H](NC(=O)c2ccc(C3CC3)cc2)CCCN1c1cnc(C(N)=O)c(Nc2cnn(C)c2)n1` [Example D-135, 5-[(2R,3R)-3-(4-cyclopropylbenzamido)-2-methylpiperidin-1-yl]-3-[(1-methyl-1H-pyrazol-4-yl)amino]pyrazine-2-carboxamide], the IC50 was 1000 to 10000 nM in assay [1], not above 10 nM in assay [2], 100 to 1000 nM in assay [3] and 1000 to 10000 nM in assay [4].

In the case of `C[C@@H]1[C@H](NC(=O)c2ccc(C3CC3)cc2F)CCCN1c1cnc(C(N)=O)c(Nc2ccc3cccnc3c2)n1` [Example D-124, 5-[(2R,3R)-3-(4-cyclopropyl-2-fluorobenzamido)-2-methylpiperidin-1-yl]-3-[(quinolin-7-yl)amino]pyrazine-2-carboxamide], the concentration for half-maximal inhibition (IC50) is more than 10000 nM in assay [1], 10 to 100 nM in assay [2], more than 10000 nM in assay [3] and more than 10000 nM in assay [4].

(Values after US20210070748A1, “INHIBITORS OF BRUTONS TYROSINE KINASE” (Pharmacyclics LLC, priority 2015, published 2021).)
